Measured values published in patent publication US11673891B2, “Imidazopyrimidine compounds and uses thereof” (Dana-Farber Cancer Institute, Inc., priority 2017, dated 2023).

Tested on: human adult PBMCs
Test: TNF production by ELISA after stimulation of human adult PBMCs
Type: cell-based
Settings: adult PBMCs, 33 μM, 18 hours; for TNF (Median): ELISA, unit not given (FIG. 6B/7B legends: TNF concentration in ng/ml); for TNF (Median) / TNF % (Median): N=3-5; for Activity class: class according to TNF % as compared to R848; for TNF % (Median): median percentage TNF production as compared to R848
Procedure: Table 1. Activity of Exemplary Imidazopyrimidine Compounds on Stimulating TNF Production in PBMCs as Compared to Compound R848 Table 1 provides the activity of exemplary compounds on stimulating TNF production in PBMCs as compared to the benchmark compound R848. Specifically, TNF production was measured by ELISA after stimulation of adult PBMCs with compound 037 analog family or the compound R848 at 33 μM for 18 hours. Analogs are ranked top to bottom by median percentage TNF production (TNF %) as compared to R848 (N=3-5). The compounds have been classified in the following categories according to TNF %: high activity—class A: TNF %>15%; medium activity—class B: 1%<TNF %≤15%; low activity—class C: TNF %≤1%.
ELISAs and Multiplex-Analyte Assays. Supernatants derived from human PBMCs and DC stimulations were assayed by ELISA for TNF (ThermoFisher Scientific; Waltham, Mass., USA). Cytokine and chemokine expression profiles (e.g., IFNγ, IL-9, IL-10, IL-12 (p70), IL-13, IL-1β, IL-23, IL-27, IL-28A, IL-33, IL-6, MIP-3α/CCL20, and TNF) in cell culture supernatants were measured using a customized Milliplex® Human Th17 Magnetic Bead Panel according to the manufacturer's instructions (Millipore, Chicago, Ill., USA). Assays were read and analyzed on the Luminex® 100/200™ System and xPOTENT® software (Luminex, Austin, Tex.). A minimum threshold was set at the minimum detectable concentration for each individual assay, defined as three standard deviations above the mean background.
PBMCs were isolated from blood using a Ficoll density gradient. PBMCs either used fresh or were stored at 5×10^7 cells per vial in 1 mL RPMI containing 20% autologous plasma and 10% DMSO at −80° C. until use. Stimulation plates were prepared by transferring 0.66 μl of DMSO-dissolved compounds (10 mM) to each well of a round bottom 96-well plate. PBMCs isolated from human adult donors were resuspended at a concentration of 10^5 cells/200 μl of RPMI supplemented with 10% of platelet-poor plasma. 200 μl of the cell suspension were transferred to each well resulting in a final compound concentration of […]. After about 18 hours of incubation (37° C., 5% CO2), plates were spun down (500×g, room temperature, 5 minutes) and supernatants were harvested for further analysis.

| Structure (SMILES) | TNF (Median) | Activity class | TNF % (Median) |
| --- | --- | --- | --- |
| Cc1ccc(-c2cn3cc(F)cnc3n2)cc1NC(=O)c1ccccc1Br [FRF-02-116] | 0.594 | B (medium activity—class B: 1%<TNF %≤15%) | 8.48% |
| Cc1ccc(-c2cn3cccnc3n2)cc1NC(=O)c1ccccc1C [Example 37.17] | 0.865 | A (high activity—class A: TNF %>15%) | 20.64% |
| Cc1ccc(-c2cn3cccnc3n2)cc1NC(=O)Cc1ccccc1 [FRF-02-103] | 0.008 | C (low activity—class C: TNF %≤1%) | 0.18% |
| Cc1ccc(-c2cn3cc(F)cnc3n2)cc1NC(=O)c1cc(F)ccc1C(F)(F)F [FRF-02-166] | 2.0745 | A (high activity—class A: TNF %>15%) | 53.91% |
| Cc1cnc2nc(-c3ccc(C)c(NC(=O)Cc4ccccc4)c3)cn2c1 [FRF-02-162-1] | 0.008 | C (low activity—class C: TNF %≤1%) | 0.42% |
| COc1cnc2nc(-c3ccc(C)c(NC(=O)c4ccccc4Br)c3)cn2c1 [FRF-02-132] | 0.008 | C (low activity—class C: TNF %≤1%) | 0.18% |
| Cc1cnc2nc(-c3ccc(Cl)c(NC(=O)c4ccccc4C(F)(F)F)c3)cn2c1 [FRF-02-174-2] | 0.1455 | B (medium activity—class B: 1%<TNF %≤15%) | 13.99% |
| Cc1ccc(-c2cn3cc(F)cnc3n2)cc1NC(=O)C(C)c1ccccc1 (stereo not drawn) [FRF-03-081] | 0.3195 | B (medium activity—class B: 1%<TNF %≤15%) | 7.51% |
| Cc1ccc(-c2cn3cc(F)cnc3n2)cc1NC(=O)c1ccc(F)cc1C(F)(F)F [FRF-02-167] | 1.101 | A (high activity—class A: TNF %>15%) | 51.62% |
| Cc1ccc(C(=O)Nc2cc(-c3cn4cc(F)cnc4n3)ccc2C)c(C(F)(F)F)c1 [FRF-02-171] | 2.1615 | A (high activity—class A: TNF %>15%) | 65.93% |
| COc1cnc2nc(-c3ccc(C)c(NC(=O)c4ccccc4C(F)(F)F)c3)cn2c1 [FRF-02-135] | 0.0705 | B (medium activity—class B: 1%<TNF %≤15%) | 1.60% |
| Cc1ccc(-c2cn3cccnc3n2)cc1NC(=O)c1ccccc1Br [Example 37.16] | 3.5625 | A (high activity—class A: TNF %>15%) | 90.17% |
| Cc1ccc(-c2cn3cccnc3n2)cc1NC(=O)c1ccccc1C(F)(F)F [Example 37.37] | 3.73 | A (high activity—class A: TNF %>15%) | 71.12% |
| Cc1ccc(-c2cn3cccnc3n2)cc1NC(=O)c1ccccc1Cl [Example 37.33] | 0.288 | A (high activity—class A: TNF %>15%) | 22.94% |
| Cc1ccc(-c2cn3cc(F)cnc3n2)cc1NC(=O)c1ccc(Cl)cc1C(F)(F)F [FRF-02-169] | 0.008 | C (low activity—class C: TNF %≤1%) | 0.18% |
| Cc1ccc(-c2cn3cc(F)cnc3n2)cc1NC(=O)C(C)(C)c1ccccc1 [FRF-03-084-1] | 0.24 | B (medium activity—class B: 1%<TNF %≤15%) | 6.00% |
| Cc1ccc(-c2cn3cc(F)cnc3n2)cc1NC(=O)c1ccccc1Cl [FRF-02-115] | 0.0625 | B (medium activity—class B: 1%<TNF %≤15%) | 2.42% |

| Structure (SMILES) | TNF (Median) | Activity class | TNF % (Median) |
| --- | --- | --- | --- |
| COc1ccc(C(=O)Nc2cc(-c3cn4cc(F)cnc4n3)ccc2C)c(C)c1 [FRF-02-176] | 0.087 | B (medium activity—class B: 1%<TNF %≤15%) | 3.81% |
| CCC(C(=O)Nc1cc(-c2cn3cc(F)cnc3n2)ccc1C)c1ccccc1 (stereo not drawn) [FRF-02-119, N-(5-(6-Fluoroimidazo[1,2-a]pyrimidin-2-yl)-2-methylphenyl)-2-phenylbutanamide] | 0.219 | B (medium activity—class B: 1%<TNF %≤15%) | 4.35% |
| CCC(C(=O)Nc1cc(-c2cn3cc(C)cnc3n2)ccc1C)c1ccccc1 (stereo not drawn) [FRF-02-144-1, N-(2-Methyl-5-(6-methylimidazo[1,2-a]pyrimidin-2-yl)phenyl)-2-phenylbutanamide] | 3.144 | A (high activity—class A: TNF %>15%) | 55.24% |
| Cc1cnc2nc(-c3ccc(C)c(NC(=O)c4ccccc4C)c3)cn2c1 [FRF-02-162-2] | 0.309 | B (medium activity—class B: 1%<TNF %≤15%) | 6.34% |
| CCC(C(=O)Nc1cc(-c2cn3cc(OC)cnc3n2)ccc1C)c1ccccc1 (stereo not drawn) [FRF-02-137] | 0.04 | B (medium activity—class B: 1%<TNF %≤15%) | 1.27% |
| Cc1ccc(-c2cn3cccnc3n2)cc1NC(=O)C(CO)c1ccccc1 (stereo not drawn) [FRF-02-193] | 2.997 | A (high activity—class A: TNF %>15%) | 91.73% |
| Cc1ccc(-c2cn3cc(F)cnc3n2)cc1NC(=O)c1ccccc1C(F)(F)F [FRF-02-118] | 1.8795 | A (high activity—class A: TNF %>15%) | 43.53% |
| Cc1ccc(-c2cn3cc(F)cnc3n2)cc1NC(=O)c1c(F)cccc1C(F)(F)F [FRF-02-175] | 0.063 | B (medium activity—class B: 1%<TNF %≤15%) | 1.43% |
| Cc1ccc(-c2cn3cc(F)cnc3n2)cc1NC(=O)C(CO)c1ccccc1 (stereo not drawn) [FRF-02-194] | 0.008 | C (low activity—class C: TNF %≤1%) | 0.18% |
| Cc1cnc2nc(-c3ccc(C)c(NC(=O)c4ccccc4Cl)c3)cn2c1 [FRF-02-144-2] | 2.5245 | A (high activity—class A: TNF %>15%) | 104.32% |
| COc1ccc(C)c(C(=O)Nc2cc(-c3cn4cccnc4n3)ccc2C)c1 [FRF-02-183] | 0.008 | C (low activity—class C: TNF %≤1%) | 0.77% |
| COc1cnc2nc(-c3ccc(C)c(NC(=O)c4ccccc4C)c3)cn2c1 [FRF-02-134] | 0.008 | C (low activity—class C: TNF %≤1%) | 0.18% |
| Cc1ccc(-c2cn3cc(F)cnc3n2)cc1NC(=O)c1ccccc1C [FRF-02-117] | 0.138 | B (medium activity—class B: 1%<TNF %≤15%) | 3.06% |
| COc1ccc(C(=O)Nc2cc(-c3cn4cccnc4n3)ccc2C)c(C)c1 [FRF-02-182] | 0.008 | C (low activity—class C: TNF %≤1%) | 0.39% |
| COc1cnc2nc(-c3ccc(C)c(NC(=O)c4ccccc4Cl)c3)cn2c1 [FRF-02-131] | 0.008 | C (low activity—class C: TNF %≤1%) | 0.18% |
| CCC(C(=O)Nc1cc(-c2cn3cc(C)cnc3n2)ccc1Cl)c1ccccc1 (stereo not drawn) [FRF-02-174-1] | 0.924 | A (high activity—class A: TNF %>15%) | 35.71% |
| COc1ccc(C)c(C(=O)Nc2cc(-c3cn4cc(F)cnc4n3)ccc2C)c1 [FRF-02-187] | 1.191 | A (high activity—class A: TNF %>15%) | 31.32% |
